# Test results from US9504729B2, “Antiangiogenic small molecules and methods of use” (The United States of America, as represented by the …, priority 2009, dated 2016).
# System: angiogenesis genes in dermal microvascular endothelial cells
# Assay: Real time RT-PCR of angiogenesis gene expression during endothelial tube formation
# Format: cell-based
# Conditions: 1 μM SM, 24 hours
# Method: For gene expression studies, three independent experiments were run for each SM tested. 90.000 cells/well (6 wells/treatment) of dermal microvascular endothelial cells (Lonza, Walkersville, Md.) were seeded on polymerized GELTREX™ gel matrix (Invitrogen, Carlsbad, Calif.) in 24 well plates. Wells were immediately treated with the same volume of 1 μM SM or PBS. After 24 hours incubation at 37° C. and 5% CO2, cells were extracted using Cell Recovery Solution (BD Biosciences, San Jose, Calif., Cat. #354253). Total RNA was extracted with the RNeasy Mini Kit (Qiagen, Valencia, Calif., Cat. #74104), and retrotranscribed using […]® First-Strand reverse transcriptase (Invitrogen, Carlsbad, Calif., Cat. #11904-018). The real time PCR reactions were performed in an Opticon 2 cycler (MJ Research, Waltham, Mass.). Amplification was performed in a final volume of 25 μl, containing 2 μl cDNA (1:10 dilution from the reversed transcribed reaction) and 2 μl of primer mixture (10 μM each of forward and reverse primers). Samples were amplified as follows: after initial denaturation at 95 C for 2 minutes, reactions were run for 46 cycles at 95° C. for 30 seconds, 60° C. for 30 seconds, and 72° C. for 45 seconds. Fluorescence was measured in every cycle and a melting curve was run after the PCR by increasing temperature from 50 to 96° C. (in 0.5° C. increments). A defined single peak was obtained for all amplicons, thus confirming the specificity of the amplification.
# The genes that were monitored were selected based on their relevance to the angiogenesis process. All experiments were done in triplicate. The results are shown in the volcano plots of FIG. 17. Log 2 fold-change is presented in the X-axis and log 10 P value in the Y-axis.
smiles,measurement,value
CC1CCN(CC[S-])CC1.O.O.[Cl][Pt+] [compound 292596],Log2 fold-change of gene expression: 1839,−0.3
same,Log2 fold-change of gene expression: 4247,−0.3
same,Log2 fold-change of gene expression: 5569,0.1
same,Log2 fold-change of gene expression: 8131,0.3
same,Log2 fold-change of gene expression: 9569,−2.0
same,Log2 fold-change of gene expression: 10988,0.9
same,Log2 fold-change of gene expression: 23001,0.1
same,Log2 fold-change of gene expression: 55332,−8.6
same,Log2 fold-change of gene expression: 57722,−0.2
same,Log2 fold-change of gene expression: 58488,0.2
same,Log2 fold-change of gene expression: 90780,−0.8
same,Log2 fold-change of gene expression: 134265,−1.6
same,Log2 fold-change of gene expression: AKT1,−0.8
same,Log2 fold-change of gene expression: ANGPT1,2.2
same,Log2 fold-change of gene expression: ANGPT2,0.8
same,Log2 fold-change of gene expression: ANGPTL3,1.0
same,Log2 fold-change of gene expression: ANGPTL4,−3.2
same,Log2 fold-change of gene expression: ANPEP,0.8
same,Log2 fold-change of gene expression: ANTXR1,−2.1
same,Log2 fold-change of gene expression: APOE,5.1
same,Log2 fold-change of gene expression: ARHGEF1,−1.6
same,Log2 fold-change of gene expression: Acvrl1,−1.6
same,Log2 fold-change of gene expression: Adcy4,4.3
same,Log2 fold-change of gene expression: BAL1,1.7
same,Log2 fold-change of gene expression: BMP1,−0.4
same,Log2 fold-change of gene expression: C1orf54,−2.2
same,Log2 fold-change of gene expression: CALD1,1.6
same,Log2 fold-change of gene expression: CCL2,2.4
same,Log2 fold-change of gene expression: CCL11,2.1
same,Log2 fold-change of gene expression: CD248,0.2
same,Log2 fold-change of gene expression: CDH5,−0.2
same,Log2 fold-change of gene expression: CENTD3,0.1
same,Log2 fold-change of gene expression: CLIC1,0.6
same,Log2 fold-change of gene expression: COL4A3,1.9
same,Log2 fold-change of gene expression: COL18A1,2.3
same,Log2 fold-change of gene expression: COMT,−0.7
same,Log2 fold-change of gene expression: CST4,0.3
same,Log2 fold-change of gene expression: CTTNBP2NL,−3.4
same,Log2 fold-change of gene expression: CXCL3,−3.8
same,Log2 fold-change of gene expression: CXCL5,5.6
same,Log2 fold-change of gene expression: CXCL6,2.2
same,Log2 fold-change of gene expression: CXCL9,1.5
same,Log2 fold-change of gene expression: CXCL10,2.5
same,Log2 fold-change of gene expression: Calcr1,−4.3
same,Log2 fold-change of gene expression: Caskin2,−2.3
same,Log2 fold-change of gene expression: Ccbp2,0.0
same,Log2 fold-change of gene expression: Cldn5,−0.6
same,Log2 fold-change of gene expression: DGKG,1.8
same,Log2 fold-change of gene expression: DKK3,−0.4
same,Log2 fold-change of gene expression: DLL4,−6.6
same,Log2 fold-change of gene expression: DUT,−1.2
same,Log2 fold-change of gene expression: EFNA1,3.1
same,Log2 fold-change of gene expression: EFNA3,0.5
same,Log2 fold-change of gene expression: EFNB2,−3.4
same,Log2 fold-change of gene expression: EGF,2.2
same,Log2 fold-change of gene expression: ENG,−0.3
same,Log2 fold-change of gene expression: EPHB4,0.9
same,Log2 fold-change of gene expression: EREG,9.6
same,Log2 fold-change of gene expression: ESAM1,−2.0
same,Log2 fold-change of gene expression: EXTL3,−0.5
same,Log2 fold-change of gene expression: Egf17,−3.3
same,Log2 fold-change of gene expression: Ehd4,−1.0
same,Log2 fold-change of gene expression: Entpd1,−8.3
same,Log2 fold-change of gene expression: Epas1,0.3
same,Log2 fold-change of gene expression: EphB1,0.4
same,Log2 fold-change of gene expression: Erg,−6.4
same,Log2 fold-change of gene expression: FGF1,4.8
same,Log2 fold-change of gene expression: FGF2,2.5
same,Log2 fold-change of gene expression: FGFR3,2.2
same,Log2 fold-change of gene expression: FIGF,1.7
same,Log2 fold-change of gene expression: FLT1,−1.9
same,Log2 fold-change of gene expression: Fgd5,−1.0
same,Log2 fold-change of gene expression: GPCR124,−6.7
same,Log2 fold-change of gene expression: GRRP1,0.2
same,Log2 fold-change of gene expression: Grp116,−3.1
same,Log2 fold-change of gene expression: HAND2,1.7
same,Log2 fold-change of gene expression: HGF,2.2
same,Log2 fold-change of gene expression: HIF1A,−2.1
same,Log2 fold-change of gene expression: HPSE,−0.3
same,Log2 fold-change of gene expression: Hspa12b,−3.3
same,Log2 fold-change of gene expression: ID1,4.0
same,Log2 fold-change of gene expression: ID3,1.0
same,Log2 fold-change of gene expression: IFNA1,2.2
same,Log2 fold-change of gene expression: IFNB1,2.6
same,Log2 fold-change of gene expression: IFNG,6.5
same,Log2 fold-change of gene expression: IGF1,0.6
same,Log2 fold-change of gene expression: IL1B,−4.1
same,Log2 fold-change of gene expression: IL6,3.7
same,Log2 fold-change of gene expression: IL8,5.1
same,Log2 fold-change of gene expression: ITGAV,−0.9
same,Log2 fold-change of gene expression: ITGB3,−1.8
same,Log2 fold-change of gene expression: Icam1,0.5
same,Log2 fold-change of gene expression: Icam2,−0.4
same,Log2 fold-change of gene expression: JAG1,0.5
same,Log2 fold-change of gene expression: KDR,−1.8
